Data from patent EP1222194B1, “7-ACYLAMINO-3-HETEROARYLTHIO-3-CEPHEM CARBOXYLIC ACID ANTIBIOTICS AND PRODRUGS THEREOF” (priority 1999, dated 2001).
In brackets after ≈: the same amount, converted by molar mass.

Columns and labels:
E. coli ATCC25992 = assay: Broth microdilution MIC (NCCLS); assay type: cell-based; conditions: Escherichia coli, Mueller-Hinton Broth, 24 h at 35 °C
Protocol: (§1) Compounds were evaluated for antimicrobial activity against a panel of bacterial strains using a broth microdilution assay performed as recommended by the NCCLS (1). The minimum inhibitory concentration (MIC) was defined as the lowest concentration of drug which prevented the growth of the bacteria. The following 16 organisms constituted the primary panel of evaluation:
(§2) For this primary panel, the assay was performed in Mueller-Hinton Broth (MHB) with a final bacterial inoculum of 5 x 10^5 CFU/mL (from an early-log phase culture) and a final volume of 100 µL. Control drugs, including imipenem, vancomycin, Penicillin G, dicloxacillin (vs. MSSA ATCC29213 only), and new compounds were prepared at a concentration equivalent to 2-fold the desired final concentration. Dilution of compounds were prepared directly in the plates by serial 2-fold dilution using a multichannel pipette. Positive and negative growth control were included in each plate.
(§3) The bacterial inocula were prepared as follows. For each strain one isolated colony was used to inoculate a volume of 8 mL of Mueller-Hinton broth and these cultures were incubated overnight (20h) at 35 °C in a shaking incubator. At the exception of Enterococcus strains, culture were then diluted 1:10 and allowed to grow for an additional one hour at 35 °C in a shaking incubator. The inocula were prepared by diluting the early log-phase (1h) cultures 1:1000 with fresh Mueller-Hinton broth. E. faecium and E. faecalis were prepared by diluting overnight cultures 1:333 and 1:666, respectively, with fresh Mueller-Hinton broth . A volume of 50 µL of the inocula was added to each well. […] The exact inocula were determined by applying […] of 10-fold serial dilution of the bacterial suspensions on TSA. After overnight incubation at 35 °C, colony forming units were manually counted.
(§4) Microtiter plates were incubated during 24 h at 35 °C and were read using a microtiterplate reader (Molecular Devices) at 650 nm as well as by visual observation using a microtiterplate reading mirror.

E. faecalis ATCC 29212 = assay: Broth microdilution MIC (NCCLS); assay type: cell-based; conditions: Enterococcus faecalis, ATCC29212, Mueller-Hinton Broth, 24 h at 35 °C
Protocol: as §1, §2, §3, §4

E. faecalis VanB (Van^R) = assay: Broth microdilution MIC (NCCLS); assay type: cell-based; conditions: Enterococcus faecalis, Mueller-Hinton Broth, 24 h at 35 °C
Protocol: as §1, §2, §3, §4

E. faecium A491 (Amp^R) = assay: Broth microdilution MIC (NCCLS); assay type: cell-based; conditions: Enterococcus faecium, Mueller-Hinton Broth, 24 h at 35 °C
Protocol: as §1, §2, §3, §4

E. faecium ATCC 35667 = assay: Broth microdilution MIC (NCCLS); assay type: cell-based; conditions: Enterococcus faecium, ATCC35667, Mueller-Hinton Broth, 24 h at 35 °C
Protocol: as §1, §2, §3, §4

E. faecium VanA (Van^R) = assay: Broth microdilution MIC (NCCLS); assay type: cell-based; conditions: Enterococcus faecium, Mueller-Hinton Broth, 24 h at 35 °C
Protocol: as §1, §2, §3, §4

P. aeruginosa ATCC 27853 = assay: Broth microdilution MIC (NCCLS); assay type: cell-based; conditions: Pseudomonas aeruginosa, ATCC27853, Mueller-Hinton Broth, 24 h at 35 °C
Protocol: as §1, §2, §3, §4

[1] = test system: S. aureus 76 (Meth^R)(lac^+); assay: Broth microdilution MIC (NCCLS); assay type: cell-based; conditions: Staphylococcus aureus, Mueller-Hinton Broth, 24 h at 35 °C
Protocol: as §1, §2, §3, §4

S. aureus ATCC 29213 = assay: Broth microdilution MIC (NCCLS); assay type: cell-based; conditions: Staphylococcus aureus, ATCC29213, Mueller-Hinton Broth, 24 h at 35 °C
Protocol: as §1, §2, §3, §4

[2] = test system: S. aureus ATCC 33593 (Meth^R); assay: Broth microdilution MIC (NCCLS); assay type: cell-based; conditions: Staphylococcus aureus, ATCC33593, Mueller-Hinton Broth, 24 h at 35 °C
Protocol: as §1, §2, §3, §4

[3] = test system: S. aureus PC1 (Meth^S)(lac^+); assay: Broth microdilution MIC (NCCLS); assay type: cell-based; conditions: Staphylococcus aureus; S. aureus PC1 (Meth^S)(lac^+); Mueller-Hinton Broth, 24 h at 35 °C; read-out: MIC
Protocol: as §1, §2, §3, §4

[4] = test system: S. aureus Spain #356 (Meth^R); assay: Broth microdilution MIC (NCCLS); assay type: cell-based; conditions: Staphylococcus aureus, Mueller-Hinton Broth, 24 h at 35 °C
Protocol: as §1, §2, §3, §4

[5] = test system: S. haemolyticus 05 (Meth^R); assay: Broth microdilution MIC (NCCLS); assay type: cell-based; conditions: Staphylococcus haemolyticus, Mueller-Hinton Broth, 24 h at 35 °C
Protocol: as §1, §2, §3, §4

[6] = In vitro stability of compounds in rat serum; assay type: in vitro ADME; conditions: compared with other 7-acylamino-3-heteroarylthio-3-cephem carboxylic acids
Protocol: In general, compounds from the class of 7-acylamino-3-heteroarylthio-3-cephem carboxylic acids have higher chemical reactivity and lower stability towards chemical or enzymatic decomposition than most typical cephalosporins. […] Results shown in Table 2 represent percentage loss of the initial amount of cephalosporin compound upon 60 min incubation in rat serum.
Procedure for measuring degree of degradation of cephalosporin compounds in rat serum was as follows:
Fresh control rat serum (heparinized and stored frozen) is preincubated at 37 °C for 15 min in a shaking water bath. pH is measured using test strips. 25 µL of a 2 mg/mL solution cephalosporin compound (in water) of is then added to each matrix to make 1000 µL. Solutions were incubated at 37 °C. 100ul of solution was taken out at time = 0, 15, 30, and 60 min post dose and added 200 µL 4% trichloroacetic acid, vortexed, and centrifuged for 10 min at 14,000 rpm in an Eppendorfmicrocentrifuge. 25 µL of each supernatant was injected onto HPLC. Experiment was repeated using 25 µL of a 0.2 mg/mL cephalosporin compound. Degradation is measured as the percentage of HPLC peak area at time t relative to peak area at time 0.
HPLC conditions: Beckman Ultrasphere C18 column. 5u. 4.6mm x 25cm. 1 mL/min of 95% 0.1 M ammonium acetate, pH 6, 5% ACN going to 75% buffer/organic over 20min. UV monitored at 254 and 280 nm.

NCCSCc1ccncc1SC1=C(C(=O)O)N2C(=O)[C@@H](NC(=O)/C(=N\O)c3nsc(N)n3)[C@H]2SC1 [Cmpd 4, (7R)-7-[(Z)-2-(5-amino-1,2,4-thiadiazol-3-yl)-2-(hydroxyimino)acetamido]-3-[4-(2-aminoethylthiomethyl)pyrid-3-ylthio]-3-cephem-4-carboxylic acid]
MIC (E. coli ATCC25992): 4 µg/mL (≈ 7.03 µM) | MIC (E. faecalis ATCC 29212): 2 µg/mL (≈ 3.52 µM) | MIC (E. faecalis VanB (Van^R)): 2 µg/mL (≈ 3.52 µM) | MIC (E. faecium A491 (Amp^R)): > 32 µg/mL | MIC (E. faecium ATCC 35667): 8 µg/mL (≈ 14.1 µM) | MIC (E. faecium VanA (Van^R)): 8 µg/mL (≈ 14.1 µM) | MIC (P. aeruginosa ATCC 27853): > 32 µg/mL | MIC [1]: 8 µg/mL (≈ 14.1 µM) | MIC (S. aureus ATCC 29213): 0.5 µg/mL (≈ 0.879 µM) | MIC [2]: 8 µg/mL (≈ 14.1 µM) | MIC [3]: 0.5 µg/mL (≈ 0.879 µM) | MIC [4]: 16 µg/mL (≈ 28.1 µM) | MIC [5]: 16 µg/mL (≈ 28.1 µM) | stability in rat serum (statement in words) [6]: improved stability
